In ChEMBL document CHEMBL3877331, “Affinity-Based Selectivity Profiling of an In-Class Selective Competitive Inhibitor of Acyl Protein Thioesterase 2” (ACS Med Chem Lett, 2017):
The source made the active and inactive calls. The rule behind the calls is not given here.

Experiments:
[1] = target: T1, Acyl-protein thioesterase 2 (Homo sapiens, UniProt O95372); assay: Competitive inhibition of HEK293T cells-derived His-tagged APT2 expressed in Escherichia coli BL21(DE3) preincubated for 30 mins followed by substrate addition by resorufin dye based acetate hydrolysis assay; parameters: species or system HEK-293T
T1 sequence (O95372 whole entry): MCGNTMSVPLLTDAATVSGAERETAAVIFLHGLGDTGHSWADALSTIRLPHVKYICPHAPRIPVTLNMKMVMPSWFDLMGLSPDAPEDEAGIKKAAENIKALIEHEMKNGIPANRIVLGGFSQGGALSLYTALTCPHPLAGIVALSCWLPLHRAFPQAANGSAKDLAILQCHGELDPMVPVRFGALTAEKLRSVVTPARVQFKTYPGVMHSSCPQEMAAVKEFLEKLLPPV

[2] = target: Adenosine kinase (Homo sapiens) (UniProt P55263); assay: Binding affinity to ADK in HEK293T cells at 50 uM incubated for 1 hr by mass spectrometry analysis relative to o-ML349-biotin; assay type: cell-based; details: HEK-293T
Chain of Adenosine kinase (Homo sapiens) (P55263 2-362 limits assumed): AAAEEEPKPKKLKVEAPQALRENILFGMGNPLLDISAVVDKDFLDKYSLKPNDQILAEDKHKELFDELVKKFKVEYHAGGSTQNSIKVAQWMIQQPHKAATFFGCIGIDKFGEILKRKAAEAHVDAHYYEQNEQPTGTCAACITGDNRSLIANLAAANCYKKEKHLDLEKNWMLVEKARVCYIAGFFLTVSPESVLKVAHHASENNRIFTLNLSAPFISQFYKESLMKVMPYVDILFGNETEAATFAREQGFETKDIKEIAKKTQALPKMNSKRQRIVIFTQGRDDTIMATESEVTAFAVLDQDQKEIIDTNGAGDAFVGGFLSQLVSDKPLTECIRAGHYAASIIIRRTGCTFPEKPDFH

[3] = target: T1, Acyl-protein thioesterase 2; assay: Binding affinity to APT2 in HEK293T cells at 50 uM preincubated for 1 hr followed by FP-TAMRA labeling by in-gel fluorescence assay; assay type: cell-based; details: HEK-293T
[4] = target: T1, Acyl-protein thioesterase 2; assay: Binding affinity to APT2 in HEK293T cells at 50 uM incubated for 1 hr by mass spectrometry analysis relative to o-ML349-biotin; assay type: cell-based; details: HEK-293T
[5] = target: Deoxycytidine kinase (Homo sapiens) (UniProt P27707); assay: Binding affinity to DCK in HEK293T cells at 50 uM incubated for 1 hr by mass spectrometry analysis relative to o-ML349-biotin; assay type: cell-based; details: HEK-293T
Chain of Deoxycytidine kinase (Homo sapiens) (P27707 whole entry, looked up): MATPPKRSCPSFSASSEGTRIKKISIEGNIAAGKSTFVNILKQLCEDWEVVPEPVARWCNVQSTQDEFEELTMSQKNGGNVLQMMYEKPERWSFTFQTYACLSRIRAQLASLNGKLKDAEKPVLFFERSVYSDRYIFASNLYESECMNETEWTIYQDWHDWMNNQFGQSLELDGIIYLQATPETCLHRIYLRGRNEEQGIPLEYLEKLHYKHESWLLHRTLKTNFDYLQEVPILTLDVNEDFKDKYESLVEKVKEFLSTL

[6] = target: T2, Pyridoxal kinase (Homo sapiens) (UniProt O00764); assay: Binding affinity to PDXK in HEK293T cells at 50 uM incubated for 1 hr by mass spectrometry analysis relative to o-ML349-biotin; assay type: cell-based; details: HEK-293T
T2 sequence (whole entry): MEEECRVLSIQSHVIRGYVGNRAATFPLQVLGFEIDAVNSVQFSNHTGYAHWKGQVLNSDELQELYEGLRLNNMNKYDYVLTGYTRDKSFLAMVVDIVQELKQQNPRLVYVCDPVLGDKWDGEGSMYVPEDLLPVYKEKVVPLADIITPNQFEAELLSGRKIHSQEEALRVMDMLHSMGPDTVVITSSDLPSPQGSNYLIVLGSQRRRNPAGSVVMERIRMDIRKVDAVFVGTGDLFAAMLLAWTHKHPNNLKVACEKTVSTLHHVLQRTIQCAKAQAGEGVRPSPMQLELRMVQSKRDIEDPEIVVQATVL

[7] = target: T3, Ribosyldihydronicotinamide dehydrogenase [quinone] (Homo sapiens) (UniProt P16083); assay: Binding affinity to NQO2 in HEK293T cells at 50 uM incubated for 1 hr by mass spectrometry analysis relative to o-ML349-biotin; assay type: cell-based; details: HEK-293T
T3 sequence (whole entry): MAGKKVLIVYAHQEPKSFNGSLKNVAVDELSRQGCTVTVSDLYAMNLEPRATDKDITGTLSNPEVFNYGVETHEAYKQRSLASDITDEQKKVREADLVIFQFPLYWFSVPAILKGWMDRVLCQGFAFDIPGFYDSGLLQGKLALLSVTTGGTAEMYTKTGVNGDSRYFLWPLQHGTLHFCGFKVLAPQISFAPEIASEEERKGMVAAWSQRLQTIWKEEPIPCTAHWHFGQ

[8] = target: FAD synthase (Homo sapiens) (UniProt Q8NFF5); assay: Binding affinity to FAD1 in HEK293T cells at 50 uM incubated for 1 hr by mass spectrometry analysis relative to o-ML349-biotin; assay type: cell-based; details: HEK-293T
Chain of FAD synthase (Homo sapiens) (Q8NFF5 whole entry): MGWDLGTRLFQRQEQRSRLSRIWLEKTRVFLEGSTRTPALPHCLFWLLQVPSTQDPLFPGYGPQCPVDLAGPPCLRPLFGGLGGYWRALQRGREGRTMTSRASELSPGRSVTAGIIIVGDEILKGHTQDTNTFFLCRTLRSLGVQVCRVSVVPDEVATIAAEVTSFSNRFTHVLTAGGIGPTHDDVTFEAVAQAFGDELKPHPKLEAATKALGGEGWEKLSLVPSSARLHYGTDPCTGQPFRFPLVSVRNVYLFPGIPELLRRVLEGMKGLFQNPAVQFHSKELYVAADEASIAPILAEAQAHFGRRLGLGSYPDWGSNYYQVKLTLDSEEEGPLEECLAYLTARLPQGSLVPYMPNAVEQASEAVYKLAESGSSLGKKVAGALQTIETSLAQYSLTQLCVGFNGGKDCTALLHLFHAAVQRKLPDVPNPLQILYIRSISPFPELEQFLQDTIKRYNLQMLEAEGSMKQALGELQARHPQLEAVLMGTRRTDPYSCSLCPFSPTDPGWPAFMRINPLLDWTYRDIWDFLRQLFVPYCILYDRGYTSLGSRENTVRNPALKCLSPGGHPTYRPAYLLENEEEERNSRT

[9] = target: T1, Acyl-protein thioesterase 2; assay: Binding affinity to APT2 in HEK293T cells at 50 uM incubated for 1 hr by mass spectrometry analysis relative to azide-PEG3-biotin; assay type: cell-based; details: HEK-293T
[10] = target: Adenosine kinase (Homo sapiens) (UniProt P55263); assay: Binding affinity to ADK in HEK293T cells at 50 uM incubated for 1 hr by mass spectrometry analysis relative to azide-PEG3-biotin; assay type: cell-based; details: HEK-293T
[11] = target: Deoxycytidine kinase (Homo sapiens) (UniProt P27707); assay: Binding affinity to DCK in HEK293T cells at 50 uM incubated for 1 hr by mass spectrometry analysis relative to azide-PEG3-biotin; assay type: cell-based; details: HEK-293T
[12] = target: T2, Pyridoxal kinase (Homo sapiens); assay: Binding affinity to PDXK in HEK293T cells at 50 uM incubated for 1 hr by mass spectrometry analysis relative to azide-PEG3-biotin; assay type: cell-based; details: HEK-293T
[13] = target: T3, Ribosyldihydronicotinamide dehydrogenase [quinone] (Homo sapiens); assay: Binding affinity to NQO2 in HEK293T cells at 50 uM incubated for 1 hr by mass spectrometry analysis relative to azide-PEG3-biotin; assay type: cell-based; details: HEK-293T
[14] = target: FAD synthase (Homo sapiens) (UniProt Q8NFF5); assay: Binding affinity to FAD1 in HEK293T cells at 50 uM incubated for 1 hr by mass spectrometry analysis relative to azide-PEG3-biotin; assay type: cell-based; details: HEK-293T
[15] = test system: MDCK; assay: Binding affinity to APT2 in MDCK cells at 50 uM incubated for 1 hr by mass spectrometry analysis; assay type: cell-based; details: Canis lupus familiaris
[16] = target: T1, Acyl-protein thioesterase 2; assay: Inhibition of fluorescein-labeled ML349 binding to HEK293T cells-derived His-tagged APT2 expressed in Escherichia coli BL21(DE3) after 30 mins by fluorescence polarization assay; parameters: species or system HEK-293T
[17] = target: T4, Pyridoxal kinase (Homo sapiens, UniProt O00764); assay: Inhibition of fluorescein-labeled ML349 binding to HEK293T cells-derived His-tagged PDXK expressed in Escherichia coli BL21(DE3) after 30 mins by fluorescence polarization assay; parameters: species or system HEK-293T
T4 sequence (O00764 whole entry): T2 sequence (whole entry)

[18] = target: T1, Acyl-protein thioesterase 2; assay: Binding affinity to HEK293T cells-derived His-tagged APT2 expressed in Escherichia coli BL21(DE3) assessed as stoichiometric complex formation at 10 uM after 5 mins by electrospray ionization native mass spectrometry; details: HEK-293T
[19] = target: T2, Pyridoxal kinase (Homo sapiens); assay: Binding affinity to HEK293T cells-derived His-tagged PDXK expressed in Escherichia coli BL21(DE3) assessed as stoichiometric complex formation at 10 uM after 5 mins by electrospray ionization native mass spectrometry; details: HEK-293T
[20] = target: T3, Ribosyldihydronicotinamide dehydrogenase [quinone] (Homo sapiens); assay: Binding affinity to HEK293T cells-derived His-tagged NQO2 expressed in Escherichia coli BL21(DE3) assessed as stoichiometric complex formation at 10 uM after 5 mins by electrospray ionization native mass spectrometry; details: HEK-293T

SMILES | Ki [1] [µM] | fold change (FC) [2] | Activity [3] | fold change (FC) [4] | fold change (FC) [5] | fold change (FC) [6] | fold change (FC) [7] | fold change (FC) [8] | fold change (FC) [9] | fold change (FC) [10] | fold change (FC) [11] | fold change (FC) [12] | fold change (FC) [13] | fold change (FC) [14] | Activity [15] | IC50 [16] [µM] | IC50 [17] [µM] | Activity [18] | Activity [19] | Activity [20]
[N-]=[N+]=NCCOCCOCCOCCNC(=O)CCCC[C@@H]1SC[C@@H]2NC(=O)N[C@@H]21 | > 10 |  |  |  |  |  |  |  |  |  |  |  |  |  |  |  |  |  |  | 
O=C(CCCC[C@@H]1SC[C@@H]2NC(=O)N[C@@H]21)NCCOCCOCCOCCn1cc(COc2ccc(N3CCN(C(=O)c4cc5c(s4)-c4ccccc4S(=O)(=O)C5)CC3)cc2)nn1 | 1.1 | > 5 | Active | > 5 | > 5 | > 5 | > 5 | > 5 | > 5 | > 5 | > 5 | > 5 | > 5 | > 5 | Active | > 10 | > 10 | Active | Active | Active
O=C(CCCC[C@@H]1SC[C@@H]2NC(=O)N[C@@H]21)NCCOCCOCCOCCn1cc(COc2ccccc2N2CCN(C(=O)c3cc4c(s3)-c3ccccc3S(=O)(=O)C4)CC2)nn1 | > 10 |  |  |  |  |  |  |  |  |  |  |  | 3 | 3 |  |  |  |  |  | 
COc1ccc(N2CCN(C(=O)c3cc4c(s3)-c3ccccc3S(=O)(=O)C4)CC2)cc1 |  |  |  |  |  |  |  |  |  |  |  |  |  |  |  |  | > 10 | Active | Active | Active
